Laboratory results taken from patent US12319752B2, “Heparin-binding cationic peptide self-assembling peptide amphiphiles useful against drug-resistant bacteria” (priority 2016, dated 2025).
Converted amounts (≈) assume the structure as drawn. Residues, ends and D or L forms follow the SMILES beside them. *: point of attachment. Palmitoyl = CCCCCCCCCCCCCCCC(=O)*

How the values were obtained:
MDR E. coli [1] = experiment: Viable colony count assay (bactericidal effect, 4 h); type: cell-based, multidrug-resistant E. coli (MDR E. coli, ATCC #BAA-2471)
Description: (§1) The bactericidal effects of the peptides were examined using a viable colony count assay as well as the live/dead staining assay. For the viable colony count assay, bacteria were treated with peptides for 4 h and the resulting viable bacterial density of each sample was expressed by log10[CFU/mL]. For the Gram-positive bacteria tested, the decrease in bacterial density was dependent on the concentration of the ACA-PA (FIG. 8A). […] As for Gram-negative E. coli and MDR E. coli bacteria (FIG. 8B), the ACA nanorods, wherein the PA were added at a concentration above their CMC, had potent bactericidal effects. For example, the ACA nanorods at concentrations over 60 μM reduced the colony forming units of Gram-negative bacteria by about a five log unit reduction after 4 h compared with the untreated negative control sample.
In addition, ACA-PA were mixed with heparin at various weight ratios (1:1, 1:2, and 1:3 ACA-PA to heparin ratios) to block the Cardin motif groups on the PA. The ACA-PA concentration used to treat bacteria (MRSA and MDR E. coli) was a constant 80 μM and only varied in the concentration of heparin.
(§2) The viable count assay was performed to quantify the bactericidal activity of each peptide. Stock solutions of peptides were diluted in 3% TSB media to concentrations ranging from 20 μM to 100 μM immediately before experiments. Heparin-ACA-PA were also prepared by mixing the ACA-PA stock solution with heparin (sodium salt from porcine intestinal mucosa, Sigma, St. Louis, MO) to 1:1, 1:2 and 1:3 weight ratios in water, and a final concentration of ACA-PA in the heparin-ACA-PA at each heparin weight ratio was adjusted to 80 μM for each experiment. The bacteria (10^6 CFU/mL) were incubated with peptides at 37° C. for 4 h. After incubation, serial dilutions of samples were plated on TSB agar and then incubated at 37° C. overnight. The colonies from each spot were manually counted, and the CFU number for each sample was determined. Experiments were conducted in triplicate and results were expressed as the log 10 values of the CFU number in each sample. Data were expressed by stand error of the mean (±S.E.M.) and N=3, *p<0.05 compared with control samples and #p<0.05 compared with bacteria treated with 40 μM of ACA-PA.

MDR E. coli [2] = type: cell-based, multidrug-resistant E. coli (MDR E. coli, ATCC #BAA-2471); conditions: 24 h
Description: (§3) This assay was performed to investigate the inhibitory effects of each peptide against Gram-positive Staphylococcus aureus (S. aureus, ATCC #25923) and methicillin-resistant S. aureus (MRSA, ATCC #43300), as well as Gram-negative Escherichia coli (E. coli, ATCC #25922), and multidrug-resistant E. coli (MDR E. coli, ATCC #BAA-2471). In all experiments, solutions of each peptide at the concentrations from 20 μM to 100 μM in 3% Tryptic Soy Broth (TSB) media were freshly prepared. A single colony of bacteria was isolated from a stock agar plate and cultured overnight in 4 mL of 3% TSB on a shaking incubator set at 200 rpm and 37° C. […] The bacteria were incubated inside a spectrophotometer (Spectra-Max Paradigm, Molecular Devices, Sunnyvale, CA) at 37° C. under static conditions for 20 h, and the bacterial growth curves were measured in terms of turbidity at OD562 every 2 minutes. The normalized OD562 values of samples were calculated by subtracting the […].
(§4) The minimum inhibitory concentration (MIC) of ACA-PA was tested against drug-resistant bacteria and compared with conventional penicillin-streptomycin (10,000 U/mL, Thermo Fisher Scientific, Waltham, MA, USA) as well. […] The OD562 was measured at the end of treatment. […]

E. coli [3] = experiment: Viable colony count assay (bactericidal effect, 4 h); type: cell-based, Escherichia coli (ATCC #25922)
Description: as §1, §2

MRSA = type: cell-based, methicillin-resistant S. aureus (MRSA, ATCC #43300); conditions: 24 h
Description: as §3, §4

E. coli [4] = experiment: Bacterial growth inhibition (growth curves, OD562, 20 h); type: cell-based, Escherichia coli (ATCC #25922)
Description: Gram-positive (S. aureus and MRSA) and Gram-negative (E. coli and MDR E. coli) bacteria were incubated with peptide concentrations ranging from 20 to 100 μM, and time-lapsed bacterial growth was monitored for 20 hours by determining the optical density at 562 nm (O.D. 562 nm). […] At the highest concentration tested (100 μM), the time to exponential growth phase of S. aurues was delayed by about 18 h (FIG. 5B), and was prolonged by almost 13 h for MRSA (FIG. 5A), while bacteria incubated without ACA-PA entered the exponential growth phase within 4 h. Gram-positive bacteria were also susceptible to the ACA-PA even below their CMC.
The MIC values of ACA-PA towards drug-resistant bacteria were determined after 24 h of incubation (Table 2).
This assay was performed to investigate the inhibitory effects of each peptide against Gram-positive Staphylococcus aureus (S. aureus, ATCC #25923) and methicillin-resistant S. aureus (MRSA, ATCC #43300), as well as Gram-negative Escherichia coli (E. coli, ATCC #25922), and multidrug-resistant E. coli (MDR E. coli, ATCC #BAA-2471). In all experiments, solutions of each peptide at the concentrations from 20 μM to 100 μM in 3% Tryptic Soy Broth (TSB) media were freshly prepared. A single colony of bacteria was isolated from a stock agar plate and cultured overnight in 4 mL of 3% TSB on a shaking incubator set at 200 rpm and 37° C. The bacteria culture was adjusted to an optical density at 562 nm (OD562) to about 0.52 (10^9 cells/mL), and the resulting bacteria suspension was subsequently diluted to about 10^6 colony forming units (CFU) per mL in each sample. The control samples were bacteria incubated in TSB media without peptides. The bacteria were incubated inside a spectrophotometer (Spectra-Max Paradigm, Molecular Devices, Sunnyvale, CA) at 37° C. under static conditions for 20 h, and the bacterial growth curves were measured in terms of turbidity at OD562 every 2 minutes. The normalized OD562 values of samples were calculated by subtracting the […].

SMILES: CCCCCCCCCCCCCCCC(=O)N[C@H](C(=O)N[C@H](C(=O)N[C@H](C(=O)N[C@H](C(=O)N[C@@H](CCCCN)C(=O)N[C@@H](CCCCN)C(=O)N[C@@H](CCCCN)C(=O)N[C@@H](CCCCN)C(=O)NCC(=O)N[C@@H](C)C(=O)N[C@@H](CCCCN)C(=O)N[C@@H](CCCCN)C(=O)N[C@@H](C)C(=O)N[C@@H](CCCNC(=N)N)C(=O)N[C@@H](C)C(=O)N[C@@H](C)C(=O)N[C@@H](CCCCN)C(=O)N[C@@H](CCCCN)C(=O)N[C@@H](C)C(=O)N[C@@H](CCCNC(=N)N)C(=O)N[C@@H](C)C(=O)O)C(C)C)C(C)C)C(C)C)C(C)C [ACA-PA, C16-V4K4G(AKKARA)2 (SEQ ID NO: 7)] (Palmitoyl-VVVVKKKKGAKKARAAKKARA-OH; N-terminus and C-terminus assumed)
- decrease in bacteria density (MDR E. coli [1]; MDR E. coli (Gram-negative), 60 to 100 μM): 10,000 fold
- number of viable bacteria colonies after mixing with heparin (MDR E. coli [1]; MDR E. coli, 80 μM ACA-PA, 1:1, 1:2, 1:3 ACA-PA to heparin weight ratios): positively proportional to the amount of heparin added
- toxicity towards bacteria after mixing with heparin (MDR E. coli [1]; MDR E. coli, 80 μM ACA-PA, 1:3 ACA-PA to heparin weight ratio, 4 h): no toxicity towards bacteria
- reduction in bacteria density (MDR E. coli [1]; MDR E. coli, concentrations lower than CMC, 4 h): no significant reduction in Gram-negative bacteria density
- reduction of colony forming units (MDR E. coli [1]; MDR E. coli, over 60 μM, 4 h, vs untreated control): five
- Minimum inhibitory concentration (MIC) (MDR E. coli [2]): 400 µg/mL (≈ 162 µM)
- decrease in bacteria density (E. coli [3]; E. coli (Gram-negative), 60 to 100 μM): 10,000 fold
- reduction in bacteria density (E. coli [3]; E. coli, concentrations lower than CMC, 4 h): no significant reduction in Gram-negative bacteria density
- reduction of colony forming units (E. coli [3]; E. coli, over 60 μM, 4 h, vs untreated control): five
- Minimum inhibitory concentration (MIC) (MRSA): 300 µg/mL (≈ 121 µM)
- bacterial growth inhibition (E. coli [4]; 20 to 100 μM, 20 h): remarkably inhibited the proliferation
- bacterial proliferation (E. coli [4]; concentrations higher than the CMC (60 μM to 100 μM)): significantly suppressed
- bacterial growth inhibition (E. coli [4]; concentrations lower than the CMC): did not significantly inhibit bacterial growth
